“Also recorded” adds a separate entry of the source.
How the values were obtained:
[1] = tested on: cultured Chinese hamster cells lacking FALDH; assay: Fatty aldehyde adducts, cytotoxicity and metabolism in cultured FALDH-deficient cells; format: cell-based
Description: (§1) Aldehydes are toxic molecules due to their propensity to covalently attach to proteins and other target molecules containing certain reactive chemical groups. Drugs that detoxify reactive aldehydes are under development for various inflammatory conditions characterized by the excessive formation of aldehydes. […] This clinical trial will investigate the safety and biochemical efficacy of systemic administration of Compound 1 in SLS.
There are no satisfactory animal models of SLS, thereby limiting preclinical testing to in vitro cellular studies. […] The detoxified ADX-102-fatty aldehyde by-products are degraded intracellularly. Thus, treatment of cultured FALDH-deficient cells with ADX-102 bypasses the lost catabolic function of FALDH on aldehydes in SLS and diminishes aldehyde load.

SLS subjects = details: applied topically as a cream; cited from earlier work
Oral absorption = format: in vivo
Description: as §1

[2] = tested on: cultured Chinese hamster cells lacking FALDH; details: cultured FALDH-deficient cells; long-chain (C16-C18) fatty aldehydes; cited from earlier work
[3] = tested on: allergic conjunctivitis and dry eye; details: ophthalmic preparation, Phase-2; cited from earlier work
[4] = Exemplary PK results after oral administration of I-1 unit dosage form, daily dose 20-1200 mg (Table 2); format: in vivo; details: human subject
Procedure: In some embodiments, a unit dosage form described herein that comprises compound I-1, or a pharmaceutically acceptable salt thereof, upon oral administration to a human subject in a daily dose of 20 mg, 50 mg, 100 mg, 200 mg, 400 mg, 700 mg, or 1200 mg (or about such doses, as the case may be), provides a pharmacokinetic result shown in the table below:
In some embodiments, the human subject is a healthy human subject.
In some embodiments, the pharmacokinetic result described herein is obtained in a healthy human subject.

CC(C)(O)c1nc2ccc(Cl)cc2cc1N [ADX-102, 2-[3-amino-6-chloro-quinolin-2-yl]-propan-2-ol]
fatty aldehyde cytotoxicity and apoptosis [1]: mitigate aldehyde cytotoxicity; also recorded: reverses fatty aldehyde cytotoxicity and apoptosis
metabolism of fatty aldehyde to fatty alcohol ([1]; C18:0, octadecanal, data not shown): prevent metabolism of fatty aldehydes to fatty alcohols; also recorded: blocks the metabolism of fatty aldehyde (C18:0, octadecanal) to fatty alcohol
effect on synthesis or degradation of fatty alcohol itself ([1]; data not shown): no effect
ichthyosis (SLS subjects): improve ichthyosis
oral absorption (Oral absorption): poor absorption qualities
formation of fatty aldehyde covalent adducts with PE (NAPE) / cellular lipids [2]: block the formation of long-chain (C16-C18) fatty aldehyde adducts with cellular lipids; also recorded: prevents fatty aldehydes from forming covalent adducts with PE (NAPE)
clinical activity in allergic conjunctivitis and dry eye [3]: beneficial activity

CC(C)(O)c1nc2ccccc2cc1N [Compound I-1]
AUCinf ([4]; daily dose 20 mg (or about)): 50.0 ng·h/mL
Cmax ([4]; daily dose 20 mg (or about)): 26.4 ng/mL
AUCinf ([4]; daily dose 50 mg (or about)): 156 ng·h/mL
Cmax ([4]; daily dose 50 mg (or about)): 56.7 ng/mL
AUCinf ([4]; daily dose 100 mg (or about)): 433 ng·h/mL
Cmax ([4]; daily dose 100 mg (or about)): 140 ng/mL
t1/2 ([4]; daily dose 100 mg (or about)): ~3.52 h
AUCinf ([4]; daily dose 200 mg (or about)): 1140 ng·h/mL
Cmax ([4]; daily dose 200 mg (or about)): 459 ng/mL
t1/2 ([4]; daily dose 200 mg (or about)): ~6.04 h
AUCinf ([4]; daily dose 400 mg (or about)): 2730 ng·h/mL
Cmax ([4]; daily dose 400 mg (or about)): 869 ng/mL
t1/2 ([4]; daily dose 400 mg (or about)): ~6.15 h
AUCinf ([4]; daily dose 700 mg (or about)): 6710 ng·h/mL
Cmax ([4]; daily dose 700 mg (or about)): 2020 ng/mL
t1/2 ([4]; daily dose 700 mg (or about)): ~7.33 h
AUCinf ([4]; daily dose 1200 mg (or about)): 14500 ng·h/mL
Cmax ([4]; daily dose 1200 mg (or about)): 4220 ng/mL
t1/2 ([4]; daily dose 1200 mg (or about)): ~7.69 h
oral absorption (Oral absorption): well-absorbed orally
